Patent publication US20250034136A1 (Nimbus Wadjet, Inc., priority 2023, published 2025)
Read-outs that look alike come from different tables or passages of the source.

What was measured:
[1] = tested on: p21 induction in HCT116 cells; assay: p21 induction in HCT116 cells; format: cell-based; settings: HCT116 cells, 24 h compound incubation, read-out: P21_EC50
Procedure: The colon carcinoma cell line HCT116 was obtained from ATCC and cultured in growth medium consisting of Mccoy's 5A Medium (Gibco 16600108) supplemented with 10% FBS (Transgene FS201-02) and 100 units/mL penicillin-streptomycin (Gibco 15140122) and maintained at 37° C. under 5% CO2. On the day of seeding, 2,000 cells in 30 μL of culture media were plated per well to Poly-D-Lysine 384 Well Black Clear Plates (Biocoat 356663) and incubated overnight at 37° C. under 5% CO2. The following day, compounds were serially diluted in DMSO for a total of 11 test concentrations. […] Next, 150 nL of diluted compound was added in duplicate to the assay plate, using an Echo 655 (Labcyte). The plate was centrifuged at 500 RPM for 1 min and then incubated at 37° C. under 5% CO2 for 24 h. After 24 h, medium was removed, and cells were fixed by adding 40 μL of 4% paraformaldehyde solution to each well and incubated for 20 min at room temperature. The plate was then washed 4 times with 100 μL per well of wash buffer (PBS with 0.1% Tween-20) using a microplate washer. Next, 30 μL of ice-cold methanol was added to each well and the plate was incubated at −20° C. for 10 min. The plate was washed 4 times with 100 μL per well of wash buffer by a microplate washer, then 30 μL per well of blocking buffer (Intercept PBS blocking buffer (LI-COR 927-70001) with 0.05% Tween-20) was added and the plate was incubated at room temperature with shaking for 2 h. Next, to each test well, 20 μL of primary antibody solution (p21 Waf1/CIP (12D1) RabbitmAb (Cell Signaling Technologies 2947) diluted 1:1000 and GAPDH (D4C6R) Mouse mAb (Cell Signaling Technologies 97166) diluted 1:2000 in blocking buffer) was added and the plate was placed at 4° C., overnight. The following day, the plate was washed 5 times with 100 μL per well of wash buffer using a microplate washer for 5 min. 20 μL per well of secondary antibody (IRDye 680CW Goat anti-Mouse IgG (H+L) (LI-COR 926-68070) diluted 1: 2000 in Blocking Buffer and IRDye 800CW Goat anti-Rabbit IgG (H+L) (LI-COR 926-32211) diluted 1: 2000 in Blocking Buffer) was then added and the plate was stored for 2 h in the dark at room temperature with shaking. The plate was then washed 4 times with 100 μL per well of wash buffer again using a microplate washer. Finally, the p21 signal and the GAPDH signal were quantified using a LI-COR Odyssey CLx Imager machine reading at 800 nm and 700 nm, respectively. Each plate contained DMSO control (low control) and an internal reference WRN inhibitor (high control) respectively. […] EC50 values for each compound were generated after non-linear regression curve fitting using commercially available software.

[2] = target: WRN (BV08), human Werner helicase (Uniprot Q14191, amino acids 517-1235 with L1074F point mutation) (Homo sapiens (Human), UniProt Q14191, L1074F); assay: WRN (BV08) ADP-Glo assay; format: biochemical; settings: class symbols A-E, read-out: ADP-Glo_hWRN_IC50
Procedure: Bovine skin gelatin (BSG), dimethyl sulfoxide (DMSO), Pluronic F-127 and tris(2-carboxyethyl)phosphine hydrochloride solution (TCEP) were purchased from Sigma-Aldrich (St. Louis, MO) at the highest level of purity possible. […] DNA strands were annealed by heating to 95° C. for 5 minutes followed by slow cooling to room temperature. Compounds in 100% DMSO (0.1 μl) were spotted into a 384-well white polystyrene Optiplate-384 (Perkin Elmer; Waltham, MA) assay plate using a LabCyte Echo 550 (Agilent; Santa Clara, CA). DMSO (0.1 μl) was added to columns 12, rows A-H and column 24, rows I-P for the maximum signal control. […] Compounds/DMSO were preincubated for 15 minutes at 25° C. with 5 μl 2×WRN (BV08), prepared as described below, in assay buffer containing 20 mM Bicine (pH=7.5), 1 mM MgCl2, 10 mM KCl, 0.1% Pluronic F-127, 0.005% BSG, 1 mM TCEP. The reaction was initiated by the addition of 5 μl 2× substrate mixture in assay buffer and incubated for 60 minutes at 25° C. The final concentrations of the assay components were 0.15 nM WRN, 5 μM ATP, and 0.1 nM DNA duplex. The final DMSO concentration was 1% and the reference compound concentration (NSC-617145) used for the minimal signal control was 20 μM. The reaction was stopped by the addition of the ADP-Glo Kit components (Promega; Madison, WI) as directed and the relative luminescence units (RLU) were read on an Envision 2104 (Perkin Elmer; Waltham, MA). % inhibition calculation:
[formula] • Where RLU=relative luminescence units, sample=signal in sample well, and MIN and MAX are the respective minimum and maximum signal controls.
[formula] • Where top and bottom are normally allowed to float but may be fixed at 100 or 0 respectively in a 3-parameter fit. Y is the % inhibition and X is the compound concentration.
Molecular Biology and virus production. […] The baculovirus from the expression plasmid WRN—BV08 was generated from transfection and amplification following the manufacturer's instructions.
Sf9 cells grown in SF900II media were infected with 1:200 WRN—BV08 P2 virus and incubated for protein expression for 72 h at 27° C. The WRN protein was purified using the following protocol. The cell pellets were thawed and resuspended in buffer A (50 mM Tris, pH 7.5, 500 mM NaCl, 1 mM TCEP, 10% Glycerol) supplemented with 0.5% CHAPS, 1 mM PMSF, 1 μg/ml Leupeptin, 1 μg/ml Pepstatin, and the Pierce Universal Nuclease and cocktail tablet. Cleared lysates were loaded onto a Ni Sepharose™ excel column and washed with buffer A and bound protein was eluted with buffer A supplemented with 300 mM imidazole. The eluted protein was dialyzed against buffer A and digested by His-tagged TEV (1:5 ratio) overnight at 4° C. ZnCl2 was added into the sample at final 15 μM before loading onto a second Ni Sepharose™ excel column. Untagged WRN protein was eluted from the column with buffer A supplemented with 20 mM imidazole, dialyzed overnight into buffer B (50 mM Tris, pH 7.5, 1 mM TCEP, 10% Glycerol) supplemented with 150 mM NaCl and loaded onto a Heparin column. Proteins were eluted with a step gradient of buffer B supplemented with 150 mM, 200 mM, 300 mM and 500 mM NaCl. WRN containing fractions were pooled and concentrated prior to loading on to size exclusion chromatography using a HiLoad 16/600 Superdex™ 200 pg column (GE Healthcare) in buffer C (20 mM HTEPES, pH 7.5, 250 mM NaCl, 0.25 mM TCEP, […]).

Chain of WRN (BV08), human Werner helicase (Uniprot Q14191, amino acids 517-1235 with L1074F point mutation) (Q14191 other isoform, or with tags, fused parts or gaps L1074F (already in the parent)): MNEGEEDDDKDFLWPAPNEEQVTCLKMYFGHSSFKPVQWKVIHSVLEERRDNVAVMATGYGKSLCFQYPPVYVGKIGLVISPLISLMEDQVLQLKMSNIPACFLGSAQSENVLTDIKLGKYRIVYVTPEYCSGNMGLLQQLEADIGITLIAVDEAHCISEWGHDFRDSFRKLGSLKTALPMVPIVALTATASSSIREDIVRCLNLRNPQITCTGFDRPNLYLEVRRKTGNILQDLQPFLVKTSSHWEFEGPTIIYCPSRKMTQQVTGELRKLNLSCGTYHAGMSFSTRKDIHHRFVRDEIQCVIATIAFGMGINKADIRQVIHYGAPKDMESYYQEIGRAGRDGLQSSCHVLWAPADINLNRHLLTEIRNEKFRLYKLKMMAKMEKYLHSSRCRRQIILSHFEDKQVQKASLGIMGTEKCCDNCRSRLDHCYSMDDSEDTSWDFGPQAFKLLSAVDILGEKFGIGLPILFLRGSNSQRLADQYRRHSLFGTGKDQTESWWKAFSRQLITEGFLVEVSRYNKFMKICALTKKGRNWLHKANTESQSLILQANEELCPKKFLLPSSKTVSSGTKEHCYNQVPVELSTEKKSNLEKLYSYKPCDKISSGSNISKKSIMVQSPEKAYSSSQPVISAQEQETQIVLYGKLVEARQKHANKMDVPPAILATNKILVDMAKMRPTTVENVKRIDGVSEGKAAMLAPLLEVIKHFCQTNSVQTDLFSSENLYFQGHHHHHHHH

| SMILES | EC50 ([1]; Homo sapiens, HCT-116, 24 h) [nM] | IC50 [2] [nM] | EC50 [1] [nM] |
| --- | --- | --- | --- |
| CCc1c(N2CCN(C(=O)c3ncnc(C)c3O)[C@@H]3CC[C@H]32)c(=O)c2nc(N(C)C3CC3)cnc2n1CC(=O)Nc1ccc(C(F)(F)F)cc1Cl (single isomer, unassigned) [I-119, N-(2-chloro-4-(trifluoromethyl)phenyl)-2-(2-(cyclopropyl(methyl)amino)-6-ethyl-7-(5-(5-hydroxy-6-methylpyrimidine-4-carbonyl)-2,5-diazabicyclo[4.2.0]octan-2-yl)-8-oxopyrido[2,3-b]pyrazin-5(8H)-yl)acetamide] | < 500 | 5 to 50 |  |
| CCc1c(N2CCN(C(=O)c3ncnc(C)c3O)[C@@H]3CC[C@H]32)c(=O)c2nc(N(C)C3CC3)cnc2n1CC(=O)Nc1ccc(C(F)(F)F)cc1Cl (single isomer, unassigned) [I-169, N-[2-chloro-4-(trifluoromethyl)phenyl]-2-{2-[cyclopropyl(methyl)amino]-6-ethyl-7-[-5-(5-hydroxy-6-methylpyrimidine-4-carbonyl)-2,5-diazabicyclo[4.2.0]octan-2-yl]-8-oxo-5H,8H-pyrido[2,3-b]pyrazin-5-yl}acetamide] |  | 5 to 50 | 500 to 2000 |
| CCc1c(N2CCN(C(=O)c3ncnc(C)c3O)C[C@@H]2C)c(=O)c2nc(N3CC[C@H]4C[C@H]43)cnc2n1CC(=O)Nc1ccc(C(F)(F)F)cc1Cl (single isomer, unassigned) [I-192] | < 500 | ≤ 5 |  |
| CCc1c(N2CCN(C(=O)c3ncnc(C)c3O)[C@H]3CCC[C@H]32)c(=O)c2nc(N(C)C)cnc2n1CC(=O)Nc1ccc(C(F)(F)F)cc1Cl (single isomer, unassigned) [I-208, N-(2-chloro-4-(trifluoromethyl)phenyl)-2-(2-(dimethylamino)-6-ethyl-7-(4-(5-hydroxy-6-methylpyrimidine-4-carbonyl)octahydro-1H-cyclopenta[b]pyrazin-1-yl)-8-oxopyrido[2,3-b]pyrazin-5(8H)-yl)acetamide] | > 5000 | 100 to 500 |  |
| CCc1c(N2CCN(C(=O)c3ncnc(C)c3O)[C@@H]3CCC[C@@H]32)c(=O)c2nc(N(C)C)cnc2n1CC(=O)Nc1ccc(C(F)(F)F)cc1Cl (single isomer, unassigned) [I-209, N-(2-chloro-4-(trifluoromethyl)phenyl)-2-(2-(dimethylamino)-6-ethyl-7-(4-(5-hydroxy-6-methylpyrimidine-4-carbonyl)octahydro-1H-cyclopenta[b]pyrazin-1-yl)-8-oxopyrido[2,3-b]pyrazin-5(8H)-yl)acetamide] | < 500 | 5 to 50 |  |
| CCc1c(N2CCN(C(=O)c3c(OC)ncc(C)c3O)C[C@@H]2C)c(=O)c2nc(N3CC[C@@H]4C[C@@H]43)cnc2n1CC(=O)Nc1ccc(C(F)(F)F)cc1Cl (single isomer, unassigned) [I-232] | < 500 | 5 to 50 |  |

Other lines, results leading:

| EC50 ([1]; Homo sapiens, HCT-116, 24 h) [nM] | IC50 [2] [nM] | EC50 [1] [nM] | SMILES |
| --- | --- | --- | --- |
|  | 50 to 100 | > 5000 | CCc1c(N2CCN(C(=O)c3ncnc(C)c3O)[C@H]3CC[C@@H]32)c(=O)c2nc(NC)cnc2n1CC(=O)Nc1ccc(C(F)(F)F)cc1Cl (single isomer, unassigned) [I-171, N-(2-chloro-4-(trifluoromethyl)phenyl)-2-(6-ethyl-7-(5-(5-hydroxy-6-methylpyrimidine-4-carbonyl)-2,5-diazabicyclo[4.2.0]octan-2-yl)-2-(methylamino)-8-oxopyrido[2,3-b]pyrazin-5(8H)-yl)acetamide] |
| < 500 | ≤ 5 |  | CCc1c(N2CCN(C(=O)c3ncnc(C)c3O)[C@@H]3CC[C@H]32)c(=O)c2nc(NC)cnc2n1CC(=O)Nc1ccc(C(F)(F)F)cc1Cl (single isomer, unassigned) [I-172, N-(2-chloro-4-(trifluoromethyl)phenyl)-2-(6-ethyl-7-(5-(5-hydroxy-6-methylpyrimidine-4-carbonyl)-2,5-diazabicyclo[4.2.0]octan-2-yl)-2-(methylamino)-8-oxopyrido[2,3-b]pyrazin-5(8H)-yl)acetamide] |
| 500 to 2000 | 5 to 50 |  | CCc1c(N2CCN(C(=O)c3ncnc(C)c3O)[C@@H](C)[C@H]2C)c(=O)c2nc(N(C)C)cnc2n1CC(=O)Nc1ccc(C(F)(F)F)cc1Cl (single isomer, unassigned) [I-196, N-(2-chloro-4-(trifluoromethyl)phenyl)-2-(2-(dimethylamino)-6-ethyl-7-(4-(5-hydroxy-6-methylpyrimidine-4-carbonyl)-2,3-dimethylpiperazin-1-yl)-8-oxopyrido[2,3-b]pyrazin-5(8H)-yl)acetamide] |
| < 500 | ≤ 5 |  | CCc1c(N2CCN(C(=O)c3ncnc(C)c3O)[C@H]3CC[C@@H]32)c(=O)c2nc(N3CC[C@H]4C[C@H]43)cnc2n1CC(=O)Nc1ccc(C(F)(F)F)cc1Cl (single isomer, unassigned) [I-219] |
| < 500 | ≤ 5 |  | CCc1c(N2CCN(C(=O)c3ncnc(C)c3O)[C@H]3CC[C@@H]32)c(=O)c2nc(N3CC[C@@H]4C[C@@H]43)cnc2n1CC(=O)Nc1ccc(C(F)(F)F)cc1Cl (single isomer, unassigned) [I-220] |
| < 500 | 5 to 50 |  | CCc1c(N2CCN(C(=O)c3c(OC)ncc(C)c3O)C[C@@H]2C)c(=O)c2nc(N3CC[C@H]4C[C@H]43)cnc2n1CC(=O)Nc1ccc(C(F)(F)F)cc1Cl (single isomer, unassigned) [I-231] |
